Assay results: patent US9416118B2, “Docosahexaenoyl ethanolamides” (The Brigham and Women's Hospital, Inc., priority 2011, dated 2016)
“Also recorded” adds a separate entry of the source. Like-named read-outs stand apart in the source and are kept apart here.

Key:
human CB2 receptor [1] = biological target: T1, human CB2 receptor (Homo sapiens, UniProt P34972); assay: CB2 beta-arrestin receptor activation (PathHunter chemiluminescence); type: cell-based
Protocol: (§1) FIG. 4. […] Ligand receptor interactions were determined by increases in chemiluminescence generated upon interaction of the EA labeled beta arrestin with the Pro-Link tagged receptor (see Methods). […] See text for more details.
(§2) Receptor activation with the CB2 beta arrestin system was carried out essentially as in (20,21). HEK cells stably overexpressing human CB2 receptor tagged with Pro-Link and EA labeled beta-arrestin (Discoverx, Fremont Calif.) were plated at 20,000 cells/well of a 96 well plate. […] Ligand receptor interaction was determined by measuring chemiluminescence using the Pathhunter EFC detection kit (Discoverx, Fremont, Calif.), generated upon coupling of the EA labeled beta arrestin with the Pro-Link tagged receptor, with a plate reader (Envision, Perkin Elmer, Santa Clara, Calif.).
(§3) To this end, recombinant human CB receptors were overexpressed in a beta-arrestin system as described in Experimental Procedures.

human PMN = assay: Microfluidic chamber screening of PMN chemotaxis in an IL-8 gradient; type: cell-based
Protocol: The fabrication and surface modification of the microfluidic devices were prepared as in refs. (9,22). Whole blood (5-10 μl) diluted in HBSS (1:10, v/v) was introduced into the chemotaxis chamber via a cell inlet and neutrophils were captured along the chamber via P-selectin tethering. Next, the transversal gradient of IL-8 (0-10 nM) was introduced to the chemotaxis chamber. After fifteen minutes, novel DHEA metabolites (at a uniform concentration) were introduced to the chemotaxis chamber from the second gradient generator network, and 10 nM IL-8 gradient was maintained Single-cell neutrophil chemotaxis was recorded using microscopy (Nikon, Eclipse E600) equipped with a video camera (Diagnostic, RT Slider) and subject to analysis using ImageJ software (9).
In parallel to structure elucidation, chemotactic screening of HPLC isolated DHEA metabolites obtained from mouse brain was carried out utilizing microfluidic chamber (FIG. 1c). After IL-8 (0-10 nM gradient) was introduced to the main channel of the microfluidic device, P-selectin tethered leukocytes rapidly migrated along the IL-8 chemotactic gradient at an average rate of 2.3 μm/min. After 15 min, the mixture of metabolites was infused into the microfluidic main channel while an IL-8 (0-10 nM) gradient was maintained (FIG. 1c, left panel). […] This decrease in chemotaxic velocity was maintained even after the gradient was switched back to IL-8.
HPLC isolated dioxygenated DHEA products were individually screened for direct PMN actions using microfluidic chambers.

[2] = system: platelet-monocyte aggregates; assay: PAF-stimulated platelet-monocyte aggregate formation in whole blood; type: cell-based, human; settings: 100 nM PAF; for Decrease of platelet-monocyte aggregate formation: 10 pM compound, human whole blood
Protocol: (§4) FIG. 5. […] Human whole blood stimulated with PAF (100 nM) was incubated with 10,17-diHDHEA, 15-HEDPEA or DHEA for 30 min, 37° C. The incubation was stopped via ice-cold RBC lysis buffer. The majority of RBCs were removed and remaining cells were labeled. Platelet-leukocyte aggregate formation or P-selectin mobilization was analyzed using FACS (see Methods). Dose response inhibition of a) platelet-monocyte aggregate formation, b) representative dot plot of platelet-monocyte aggregates, c) platelet-PMN aggregate formation, d) platelet P-selectin mobilization, with indicated products. (diamonds 10,17-diHDHEA; triangles 15-HEDPEA; squares DHEA). Results are mean±SEM of n=5-6 donors. P<0.05 compared to vehicle treatment.
(§5) Whole blood was incubated with either vehicle, HPLC isolated 10,17-diHDHEA or 15-HEDPEA (0.01-100 nM) for 15 min at 37° C. with intermittent mixing. Vehicle or PAF (100 nM, PAF C-16, Cayman Chemical, Ann Arbor, Mich.) was added for another 30 min at 37° C. with intermittent mixing. Incubation was stopped by ice-cold red blood cell lysis buffer (10 min at 4° C.). Cells were collected using centrifugation (210 g, 5 min, 4° C.) then fixed with 3% formalin (15 min, 4° C.). Cells were stained with FITC-anti-human CD41 (1:100, v/v) and PE-anti-human-CD62P (1:100, v/v) for 20 min at 4° C., and were analyzed using a flow cytometry and Cell Quest software as in (23). Cellular composition within whole blood was determined by forward and side scattering as well as cell-specific markers, anti-human-CD41 for platelets, anti-human-CD14 for monocytes and anti-human-CD16 for neutrophils.

platelet-PMN aggregates = assay: PAF-stimulated platelet-PMN aggregate formation in whole blood; type: cell-based, human; settings: 100 nM PAF
Protocol: as §4
(§6) Whole blood was incubated with either vehicle, HPLC isolated 10,17-diHDHEA or 15-HEDPEA (0.01-100 nM) for 15 min at 37° C. with intermittent mixing. […] Cells were stained with FITC-anti-human CD41 (1:100, v/v) and PE-anti-human-CD62P (1:100, v/v) for 20 min at 4° C., and were analyzed using a flow cytometry and Cell Quest software as in (23). Cellular composition within whole blood was determined by forward and side scattering as well as cell-specific markers, anti-human-CD41 for platelets, anti-human-CD14 for monocytes and anti-human-CD16 for neutrophils.

[3] = system: platelet-leukocyte aggregates; assay: PAF-stimulated platelet-leukocyte aggregate formation in whole blood (overall statements); type: cell-based; settings: human whole blood, 100 nM PAF, 0.01-100 nM dose range
Protocol: as §4, §5

platelet P-selectin = assay: Platelet P-selectin surface expression in PAF-stimulated whole blood; type: cell-based, human; settings: 10 pM to 100 nM
Protocol: as §4, §6

CB1 receptor [4] = biological target: T2, CB1 receptor (Homo sapiens, UniProt P21554); assay: CB1 beta-arrestin receptor activation; type: cell-based; set-up: expressed in transfected cells; host or cells: HEK cells; settings: HEK cells overexpressing CB1, beta-arrestin system
Protocol: as §1, §3

[5] = system: mouse ischemia reperfusion second organ lung injury; assay: Hind limb ischemia / second organ lung reperfusion injury; type: in vivo
Protocol: Supplemental FIG. 4. 15-HEDPEA is protective in mouse ischemia reperfusion second organ lung injury. Mice were subjected to hind limb ischemia for 1 hr using tourniquets. 15-HEDPEA was intravenously administered 5 min before tourniquet removal. After 2 hr reperfusion, mouse lungs were harvested and the tissue levels of myeloperoxidase (MPO) were determined using a mouse MPO ELISA. Results are expressed as reduction in lung associated decrease in leukocyte myeloperoxidase values (n=3-6).
Murine hind limb vascular occlusion second organ lung reperfusion injury was performed using 6- to 8-week-old FVB male mice and carried out as in (24).

human CB2 receptor [6] = biological target: T1, human CB2 receptor; assay: AM630 inhibition of ligand-stimulated activation of cells over-expressing CB2; type: cell-based
Protocol: as §1, §2, §3

CB1 receptor [7] = biological target: T2, CB1 receptor; settings: from reference 31; read-out: Ki, affinity to CB1 receptor; cited from earlier work
[8] = HEK cells overexpressing human CB2, beta-arrestin system, 1 h, 37° C., 1 pM to 100 nM, read-out: EC50 for activation of CB2
[9] = 10 nM compound, 0-10 nM IL-8 gradient

T1 sequence (P34972 whole entry): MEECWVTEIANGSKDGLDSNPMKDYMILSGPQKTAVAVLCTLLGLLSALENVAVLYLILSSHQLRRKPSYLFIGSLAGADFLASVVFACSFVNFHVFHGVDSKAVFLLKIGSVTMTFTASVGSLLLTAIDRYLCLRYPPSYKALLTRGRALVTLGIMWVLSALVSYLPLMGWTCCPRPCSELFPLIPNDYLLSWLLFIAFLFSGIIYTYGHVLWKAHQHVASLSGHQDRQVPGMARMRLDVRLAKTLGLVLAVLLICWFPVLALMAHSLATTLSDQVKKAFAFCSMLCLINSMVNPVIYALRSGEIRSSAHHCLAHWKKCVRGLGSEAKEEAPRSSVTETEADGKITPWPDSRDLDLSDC
T2 sequence (P21554 whole entry): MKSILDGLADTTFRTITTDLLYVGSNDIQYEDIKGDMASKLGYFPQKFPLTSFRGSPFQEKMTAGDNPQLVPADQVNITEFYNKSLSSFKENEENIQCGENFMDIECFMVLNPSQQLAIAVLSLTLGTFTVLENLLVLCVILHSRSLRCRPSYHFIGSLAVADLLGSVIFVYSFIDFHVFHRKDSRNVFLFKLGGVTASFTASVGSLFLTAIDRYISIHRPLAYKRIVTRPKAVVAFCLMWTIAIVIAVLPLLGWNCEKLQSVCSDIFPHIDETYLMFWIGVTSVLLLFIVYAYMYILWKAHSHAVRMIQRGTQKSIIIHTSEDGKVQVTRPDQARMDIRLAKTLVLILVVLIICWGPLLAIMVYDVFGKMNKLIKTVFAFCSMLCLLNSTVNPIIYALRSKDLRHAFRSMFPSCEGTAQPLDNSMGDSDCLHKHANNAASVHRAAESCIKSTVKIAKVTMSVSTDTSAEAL

For CC/C=C\C[C@H](O)/C=C/C=C\C=C\[C@H](O)C/C=C\C/C=C\CCC(=O)NCCO (single isomer, unassigned) [10,17-diHDHEA, 10,17-dihydroxydocosa-4Z,7Z,11,13Z,15,19Z-hexaenoylethanolamide], the EC50 (human CB2 receptor [1]; [8]) was 0.39 nM, the “Effect on PMN chemotaxis (in words)” value (human PMN; [9]) was “did not significantly regulate chemotaxis” and the “Effect on PMN chemotaxis (in words)” value (human PMN; 10 μM compound, IL-8 gradient) was “rapidly stopped PMN chemotaxis”. The “Decrease of platelet-monocyte aggregate formation” value [2] was about 30%, the “Maximum reduction of platelet-monocyte aggregate formation” value ([2]; 100 pM compound, bell-shaped dose response) was about 40% and the “Decrease of platelet-PMN aggregates” value (platelet-PMN aggregates; human whole blood) was 25%-35%. The “Inhibition of PMN-platelet aggregate formation (in words)” value (platelet-PMN aggregates; concentrations as low as 10 pM) was “inhibited”, the “Effect on platelet-leukocyte aggregate formation (in words)” value [3] was “prevented formation of platelet-leukocyte aggregates” and the “Effect on platelet-leukocyte aggregate formation (in words)” value ([3]; listed as 10,17S-diHDHEA) was “block PAF-stimulated platelet-leukocyte aggregate formation”. For the same compound, the “Effect on P-selectin surface expression of platelets (in words)” value (platelet P-selectin) was “blocked P-selectin surface expression”, the “Effect on P-selectin surface expression of platelets (in words)” value (platelet P-selectin; listed as 10,17-diHDEA) was “inhibited” and the “Activation of CB1 receptors (in words)” value (CB1 receptor [4]) was “activated CB1 receptors but required much higher concentrations”.

With CC/C=C\C[C@H](O)/C=C/C=C\C/C=C\C/C=C\C=C\[C@H](O)CCC(=O)NCCO [4,17-diHDHEA, 4,17-dihydroxydocosa-5,7Z,10Z,13Z,15,19Z-hexaenoylethanolamide] the “Effect on PMN chemotaxis (in words)” value (human PMN; [9]) was “did not significantly regulate chemotaxis”.

In the case of CC/C=C\C[C@H](O)/C=C/C=C\C/C=C\C=C\[C@H](O)C/C=C\CCC(=O)NCCO [7,17-diHDHEA, 7,17-dihydroxydocosa-4Z,8E,10Z,13Z,15,19Z-hexaenoylethanolamide], the “Effect on PMN chemotaxis (in words)” value (human PMN; [9]) is reported as “did not significantly regulate chemotaxis”.

With CCCCC[C@H](O)/C=C/C=C\C/C=C\C/C=C\CCCC(=O)NCCO [15(S)-HAEA, 15(S)-HETE ethanolamide, reference compound] the “Stimulation of CB2 receptors (in words)” value (human CB2 receptor [1]; beta-arrestin system, tested dose range 1 pM to 100 nM) was “did not stimulate CB2 receptors”.

In the case of CC/C=C\CC1OC1C(O)/C=C\C/C=C\C/C=C\C/C=C\CCC(=O)NCCO (centres unmarked) [15-HEDPEA, 15-hydroxy-16(17)-epoxydocosa-4Z,7Z,10Z,13Z,19Z-pentaenoylethanolamide], the EC50 (human CB2 receptor [1]; [8]) is reported as 0.1 nM, the “Effect on PMN chemotaxis (in words)” value (human PMN; [9]) is reported as “effectively stopped PMN chemotaxis; also recorded: stopped further PMN migration” and the “Time after which further PMN migration stopped” value (human PMN; 10 nM compound, IL-8 gradient) is reported as about 4 min. For the same compound, the “Decrease of platelet-monocyte aggregate formation” value [2] was about 30%, the “Effect on platelet-leukocyte aggregate formation (in words)” value [3] was “block PAF-stimulated platelet-leukocyte aggregate formation; also recorded: prevented formation of platelet-leukocyte aggregates” and the “Reduction of lung PMN infiltration (MPO) compared to vehicle” value ([5]; 1 μg/mouse intravenously, 1 h ischemia, 2 h reperfusion) was about 50%. The “Organ protection (in words)” value ([5]; mouse reperfusion second organ injury, 1 μg/mouse) was “organ protective” and the “Activation of CB1 receptors (in words)” value (CB1 receptor [4]) was “activated CB1 receptors but required much higher concentrations”.

In the case of COc1ccc(C(=O)c2c(C)n(CCN3CCOCC3)c3cc(I)ccc23)cc1 [AM630], the “AM630 inhibition of CB2 activation stimulated with 15-HEDPEA” value (human CB2 receptor [6]; 15-HEDPEA 10 nM) is reported as “inhibited activation”, the “AM630 inhibition of CB2 activation stimulated with AEA” value (human CB2 receptor [6]; AEA 10 nM, positive control) is reported as “inhibited activation” and the “AM630 inhibition of CB2 interaction with 10,17-diHDHEA” value (human CB2 receptor [6]; at higher concentration, n=3, data not shown) is reported as “inhibited GPCR CB2 interaction”.

For CCC=CCC=CCC=CCC=CCC=CCC=CCCC(=O)NCCO [DHEA, docosahexaenoylethanolamide, reference compound], the EC50 (human CB2 receptor [1]) is listed as 9.8 nM, the “Effect on platelet-leukocyte aggregate formation (in words)” value [3] is listed as “did not significantly inhibit; also recorded: not active” and the Ki (CB1 receptor [7]) is listed as 324 nM.
